Assay results taken from publication PMC6522510 (Nature Communications, 2019).
Values joined by “and” are separate entries in the source; they are usually repeats but may differ in a detail not shown here. Equal values may be shown once. Read-outs that look alike come from different tables or passages of the source.

Assays:
MOLM-13 [1] = assay: Secondary dose-response HTS, Cell Titer Glo; type: cell-based, human; conditions: for EC50: Homo sapiens, read-out: average effective concentration, MOLM-13
MV4-11 [2] = assay: Secondary dose-response HTS, Cell Titer Glo; type: cell-based, human; conditions: for EC50: Homo sapiens, read-out: average effective concentration, MV4-11
CHRF288-11 [3] = assay: Secondary dose-response HTS, Cell Titer Glo; type: cell-based, human; conditions: Homo sapiens, HTS, read-out: average effective concentration, CHRF288-11
CMK [4] = assay: Secondary dose-response HTS, Cell Titer Glo; type: cell-based, human; conditions: CMK; for EC50: Homo sapiens, read-out: average effective concentration, CMK
CMS [5] = assay: Secondary dose-response HTS, Cell Titer Glo; type: cell-based, human; conditions: Homo sapiens, HTS, read-out: average effective concentration, CMS
M07e [6] = assay: Secondary dose-response HTS, Cell Titer Glo; type: cell-based, human; conditions: Homo sapiens, M-07e, read-out: average effective concentration, M07e
ML2 = assay: Secondary dose-response HTS, Cell Titer Glo; type: cell-based, human; conditions: Homo sapiens
U937 [7] = assay: cells; set-up: species or system AML cell lines (8); Secondary HTS, 10-point dose-response in triplicate, Cell Titer Glo viability, four-parameter fit EC50; conditions: Homo sapiens, U-937; 72 h cell viability; read-out: U937
CMK [8] = assay: cells; set-up: species or system AML cell lines (8); conditions: Homo sapiens, 72 h, read-out: CMK
MOLM-13 [9] = assay: cells; set-up: species or system AML cell lines (8); Secondary HTS, 10-point dose-response in triplicate, Cell Titer Glo viability, four-parameter fit EC50; conditions: Homo sapiens, read-out: MOLM-13
MV4-11 [10] = assay: cells; set-up: species or system AML cell lines (8); conditions: Homo sapiens, MV4-11, 72 h, read-out: MV4-11
U937 [11] = assay: Secondary dose-response HTS, Cell Titer Glo; type: cell-based, human; conditions: Homo sapiens
CMS [12] = assay: cells; set-up: species or system AML cell lines (8); conditions: 72 h, read-out: CMS
CHRF288-11 [13] = tested on: CHRF288-11; set-up: species or system AML cell lines (8); Primary HTS, single concentration about 10 uM, Cell Titer Glo viability; log10 luminescence, per cent inhibition relative to cycloheximide control; conditions: 72 h, 10 µM, inhibitor
CMK [14] = tested on: CMK; set-up: species or system AML cell lines (8); Primary HTS, single concentration about 10 uM, Cell Titer Glo viability; log10 luminescence, per cent inhibition relative to cycloheximide control; conditions: 72 h, 10 µM, inhibitor
CMS [15] = tested on: CMS; set-up: species or system AML cell lines (8); Primary HTS, single concentration about 10 uM, Cell Titer Glo viability; log10 luminescence, per cent inhibition relative to cycloheximide control; conditions: 72 h, 10 µM, inhibitor
M07e [16] = tested on: M07e; set-up: species or system AML cell lines (8); Primary HTS, single concentration about 10 uM, Cell Titer Glo viability; log10 luminescence, per cent inhibition relative to cycloheximide control; conditions: 72 h, 10 µM, inhibitor
ML-2 = tested on: ML-2; set-up: species or system AML cell lines (8); Primary HTS, single concentration about 10 uM, Cell Titer Glo viability; log10 luminescence, per cent inhibition relative to cycloheximide control
MOLM-13 [17] = tested on: MOLM-13; set-up: species or system AML cell lines (8); Primary HTS, single concentration about 10 uM, Cell Titer Glo viability; log10 luminescence, per cent inhibition relative to cycloheximide control; conditions: 72 h, 10 µM, inhibitor
MV4-11 [18] = tested on: MV4-11; set-up: species or system AML cell lines (8); Primary HTS, single concentration about 10 uM, Cell Titer Glo viability; log10 luminescence, per cent inhibition relative to cycloheximide control; conditions: 72 h, 10 µM, inhibitor
U937 [19] = tested on: U937; set-up: species or system AML cell lines (8); Primary HTS, single concentration about 10 uM, Cell Titer Glo viability; log10 luminescence, per cent inhibition relative to cycloheximide control; conditions: 72 h, 10 µM, inhibitor
M07e [20] = assay: cells; set-up: species or system AML cell lines (8); conditions: M-07e, 72 h, read-out: M07e
U937 [21] = assay: cells; set-up: species or system AML cell lines (8); conditions: Homo sapiens, U-937, 72 h, read-out: U937
[22] = tested on: MLLr primary AML blast samples; assay: Ex vivo drug treatment of primary AML blasts on mesenchymal stromal cells; type: cell-based; conditions: Homo sapiens; primary blasts on MSC, 96 h, range over patient samples
CHRF288-11 [23] = assay: cells; set-up: species or system AML cell lines (8); conditions: 72 h, read-out: CHRF288-11
[24] = secondary high-throughput screen, MOLM-13
[25] = secondary high-throughput screen, MV4-11
[26] = secondary high-throughput screen, CHRF288-11
[27] = secondary high-throughput screen
[28] = secondary high-throughput screen, CMS
[29] = secondary high-throughput screen, […]
[30] = secondary high-throughput screen, ML-2, read-out: average effective concentration, ML-2
[31] = secondary high-throughput screen, M07e
[32] = U-937, secondary high-throughput screen, U937, read-out: average effective concentration, U937

Row | Structure (SMILES) | EC50 (MOLM-13 [1]; [24]) | EC50 (MV4-11 [2]; [25]) | EC50 (CHRF288-11 [3]; [26]) | EC50 (CMS [5]; [28]) | EC50 (M07e [6]; [29]) | EC50 (ML2; [30]) | EC50 (MV4-11 [10]) | EC50 (CMK [4]; [27]) | EC50 (U937 [11]; [32]) | EC50 (MOLM-13 [9]; 72 h cell viability) | other results
1 | CN1C(=O)[C@@]23C[C@]4([C@]56C[C@@]78SS[C@@](CO)(C(=O)N7[C@H]5Nc5ccccc56)N(C)C8=O)c5ccccc5N[C@@H]4N2C(=O)[C@]1(CO)SS3 [CHAETOCIN] | 62 nM | 29 nM | 12 nM | 10 nM | 12 nM | 26 nM |  |  |  |  | average effective concentration, CMK (CMK [4]; [27]): Inactive; EC50 (U937 [7]): 7.7 nM; EC50 (CMK [8]): > 10 µM
2 | COC(=O)[C@]1(C)CC[C@]2(C)CC[C@]3(C)C4=CC=C5C(=CC(=O)C(O)=C5C)[C@]4(C)CC[C@@]3(C)[C@@H]2C1 [[…]] |  |  |  |  |  |  | > 10 µM |  |  |  | EC50 (MOLM-13 [9]; MOLM-13, 72 h): > 10 µM
3 | Nc1nc(Cl)nc2c1ncn2[C@H]1C[C@H](O)[C@@H](CO)O1 [CLADRIBINE] | 35 nM | 24 nM | 170 nM |  |  | 190 nM |  | 30 nM | 87 nM |  | EC50 (M07e [6]; [31]): 14 nM; EC50 (CMS [12]): > 10 µM
4 | CN1C(=O)[C@]23CC4=CC=C[C@H](O)[C@H]4N2C(=O)[C@@]1(CO)SS3 [GLIOTOXIN] |  |  | 24 nM | 26 nM | 130 nM | 25 nM | > 10 µM | 16 nM | 12 nM | > 10 µM | average effective concentration, MOLM-13 (MOLM-13 [1]; [24]): Inactive; average effective concentration, MV4-11 (MV4-11 [2]; [25]): Inactive; CHRF288-11 %inh (CHRF288-11 [13]): 141.2% and 155.7%; CMK %inh (CMK [14]): 129.2% and 125%; CMS %inh (CMS [15]): 108.9% and 102.6%; M07e %inh (M07e [16]): 143.7% and 136.2%; ML-2 %inh (ML-2; 72 h, 10 µM, inhibitor): 66.31%; ML-2 %inh (ML-2; 72 h, 10 µM; inhibitor): 62.11%; MOLM-13 %inh (MOLM-13 [17]): 95.14% and 103.3%; MV4-11 %inh (MV4-11 [18]): 84.27% and 75%; U937 %inh (U937 [19]): 86.1% and 87.37%
5 | NC(=O)c1cccc(N)c1 [Compound 3-AMINOBENZAMIDE] | 3200 nM |  | 3000 nM |  |  | 3200 nM | > 10 µM |  |  |  | EC50 (CMK [8]): > 10 µM; EC50 (CMS [12]): > 10 µM; EC50 (M07e [20]): > 10 µM; EC50 (U937 [21]): > 10 µM
6 | C=CC(=O)N1CCC[C@@H](n2nc(-c3ccc(Oc4ccccc4)cc3)c3c(N)ncnc32)C1 [Ibrutinib, reference compound] | 6700 nM | 10000 nM |  | > 10000 nM |  |  |  | > 10000 nM | 10000 nM |  | IC50 [22]: > 20 µM
7 | CCC(=O)CCCCC[C@@H]1NC(=O)[C@H]2CCCCN2C(=O)[C@H]([C@@H](C)CC)NC(=O)[C@H](Cc2cn(OC)c3ccccc23)NC1=O [APICIDIN] | 130 nM |  | 410 nM | 220 nM | 140 nM | 180 nM | > 10 µM |  | 250 nM |  | average effective concentration, MV4-11 (MV4-11 [2]; [25]): Inactive; average effective concentration, CMK (CMK [4]; [27]): Inactive; EC50 (CMK [8]): > 10 µM
8 | C=C1C(=O)O[C@@H]2C[C@@H](C)[C@@H]3C=CC(=O)[C@@]3(C)[C@@H](O)[C@H]12 [HELENALIN] |  |  |  |  |  |  | > 10 µM |  |  | > 10 µM | average effective concentration, MOLM-13 (MOLM-13 [1]): Inactive; average effective concentration, MV4-11 (MV4-11 [2]): Inactive; EC50 (CHRF288-11 [3]): 170 nM; EC50 (CMK [4]): 190 nM; EC50 (CMS [5]): 210 nM; EC50 (M07e [6]): 340 nM; EC50 (ML2; ML-2, read-out: average effective concentration, ML-2): 130 nM; EC50 (U937 [11]; U-937, read-out: average effective concentration, U937): 170 nM
9 | CC1=C(O)C(=O)C=C2C1=CC=C1[C@@]2(C)CC[C@@]2(C)[C@@H]3C[C@](C)(C(=O)O)CC[C@]3(C)CC[C@]12C [CELASTROL] |  |  | 75 nM | 64 nM | 940 nM | 67 nM | > 10 µM | 69 nM | 79 nM | > 10 µM | average effective concentration, MOLM-13 (MOLM-13 [1]; [24]): Inactive; average effective concentration, MV4-11 (MV4-11 [2]; [25]): Inactive
10 | CC(C)[C@]12O[C@H]1[C@@H]1O[C@]13[C@]1(O[C@H]1C[C@H]1C4=C(CC[C@@]13C)C(=O)OC4)[C@@H]2O [TRIPTOLIDE] | 120 nM | 230 nM |  | 70 nM |  | 61 nM |  | 10 nM | 100 nM |  | EC50 (M07e [6]; [31]): 10 nM; EC50 (CHRF288-11 [23]): > 10 µM
11 | C[C@@H]1C[C@H]2O[C@@H]2/C=C\C=C\C(=O)Cc2c(Cl)c(O)cc(O)c2C(=O)O1 [RADICICOL] | 27 nM | 21 nM | 92 nM | 110 nM |  | 61 nM |  | 66 nM | 15 nM |  | EC50 (M07e [20]): > 10 µM
12 | C[C@]12O[C@H](C[C@]1(O)CO)n1c3ccccc3c3c4c(c5c6ccccc6n2c5c31)CNC4=O [LESTAURTINIB] |  | 3200 nM | 110 nM | 7.55 nM |  | 320 nM |  | 3.3 nM | 41 nM | > 10 µM | EC50 (M07e [6]; [31]): 1 nM
